Patent US7879315B2, “Agent for dissolving dental calculi and dental caries” (Showa Yakuhin Kako Co., Ltd., priority 2002, dated 2011)

Experiment: Dissolution of dental calculus by immersion (weight after treatment)

Molecule: O=C(O)CC(O)(CC(=O)O)C(=O)O [citric acid]
- weight of dental calculus after the treatment (1.3 mg calculus immersed 13 minutes in 1 ml of 10% aqueous solution): 0.65 mg

Molecule: O=C([O-])CN(CCN(CC(=O)[O-])CC(=O)O)CC(=O)O.[Na+].[Na+] [disodium edetate]
- weight of dental calculus after the treatment (0.50 mg calculus immersed 44 minutes in 1 ml of 14.3% solution): 0.25 mg

Molecule: O=C(O)CO [glycolic acid]
- weight of dental calculus after the treatment (0.9 mg calculus immersed 9 minutes in 1 ml of 10% aqueous solution): 0.5 mg

Molecule: O=C(O)CC(O)C(=O)O (stereo not shown) [malic acid]
- weight of dental calculus after the treatment (1.2 mg calculus immersed 13 minutes in 1 ml of 10% aqueous solution): 0.6 mg

Molecule: O=P(O)(O)O [phosphoric acid]
- weight of dental calculus after the treatment (1.2 mg calculus immersed 7 minutes and 30 seconds in 1 ml of 10% aqueous solution): 0.6 mg
- weight of dental calculus after the treatment (1.4 mg calculus immersed 8 minutes and 30 seconds in 1 ml of 2% aqueous solution): 0.7 mg

Molecule: O=P(O)(O)O[C@H]1[C@H](OP(=O)(O)O)[C@@H](OP(=O)(O)O)[C@H](OP(=O)(O)O)[C@@H](OP(=O)(O)O)[C@H]1OP(=O)(O)O [phytic acid]
- weight of dental calculus after the treatment (3.0 mg calculus immersed 5 minutes in 1 ml aqueous solution containing 0.5 g phytic acid (15% aqueous solution)): 2.6 mg
- weight of dental calculus after the treatment (3.0 mg calculus immersed 10 minutes in 1 ml aqueous solution containing 0.5 g phytic acid (15% aqueous solution)): 2.1 mg

Molecule: O=P(O)(O)OP(=O)(O)O [pyrophosphoric acid]
- weight of dental calculus after the treatment (2.2 mg calculus immersed 7 minutes in 1 ml of 10% aqueous solution): 1.1 mg

Molecule: polyphosphoric acid
- weight of dental calculus after the treatment (1.5 mg calculus immersed 7 minutes and 30 seconds in 1 ml of 10% aqueous solution): 0.7 mg
